Laboratory results as given in patent US5352810A, “Phosphatidylinositol analogues, inhibitors of phosphatidylinositol specific phospholipase C” (Mediolanum Farmaceutici S.p.A., priority 1991, dated 1994).

Experiments:
[1] = system: K562 erythroleukaemia cell line; test: In vitro antitumoral activity / toxicity assay (propidium iodide, flow cytofluorometry); type: cell-based; details: FIG. 1
Protocol: The compound described in example 1.3 and named 309 bis was tested to evaluate the "in vitro" antitumoral activity according to the following method:
Cell cultures. K562 erythroleukaemia cell line was obtained from ATCC (Rockville, Md., USA). Cell culture media and plastic were from Flow (U.K.). Cells were grown in RPMI 1640 medium supplemented with 10% (v/v) heat-inactivated foetal calf serum, 2mM L-glutamine, 2.0 g.1^-1 bicarbonate, and 10 mM Hepes (4-(2-hydroxyethyl)-1-piperazine ethanesulphonic acid) in humidified atmosphere with 5% (v/v) CO2 at 37° C. Coltures were performed without the addition of any antibiotics, and were routinely checked for the presence of Mycoplasma infection.
Toxicity assay. Cells were washed and suspended to the final concentration of 10^6 ml^-1 in a medium containing 5% (v/v) FCS. The chemical compounds under evaluation were diluted from a 2 mM stock solution containing 5% (v/v) FCS and 0.2% (v/v) dimethylsulphoxide (DMSO, FCS and medium were added in sequence to facilitate solubility); when necessary, solutions were treated with short sonical pulses. 0.2% DMSO was added to controls. […] The 560-580 nm fluorescence of the death cells, excited at 490-495 nm, was monitored on a FACS-analizer flow cytofluorometer (Becton Dickinson, Calif., USA) using a Consort 30 programme. […]

[2] = target: phosphatidylinositol-specific phospholipase C (PLC); test: Inhibition of phosphatidylinositol-specific phospholipase C enzymatic activity (hydrolysis of [3H]phosphatidylinositol); type: biochemical; details: soluble fraction of human platelets; 20 min preincubation, 15 min reaction, pH 6.5, 37° C.; read-out: IC50 (Inhibitor concentration inhibiting 50% of the enzyme)
Protocol: The following experiments were carried out with the compounds prepared in the Examples 1-5 above mentioned in order to evaluate their ability to inhibit the enzymatic activity of phosphatidylinositol-specific phospholipase C (PLC).
The test were carried out according to the following operations.
1. Preparation of phosphatidylinositol-specific phospholipase C enzyme from human platelets.
As the starting material human plasma enriched with human platelets was used.
Platelets were precipitated from plasma by centrifugation at 0°-4° C. for 30 minutes at 2,500×g. The platelets precipitate was washed twice by using a buffer "A" Hepes pH 7 (137 mM NaCl, 20 mM Hepes; 1.0 mM EGTA; 5 mM glucose) and successively recovered by using buffer "B" Hepes (10 mM Hepes, pH 7).
The platelets were sonicated and centrifuged at 3,200×g for 20 minutes at 0-4° C. The surnatant consisting of platelets homogenate, was separated and ultracentrifuged at 105,000×g for 1 hour, thereby obtaining two fractions: the soluble one and the particulate one, both containing PLC.
2. Preparation of phosphatidylinositol substrate.
The substrate marked for PLC, L-3-phosphatidyl [2-^3 H] inositol, cod. […]
The product was purified by HPLC and had the following characteristics: specific activity 20 Ci/mMol (22.6 mCi/mg), radioactivity concentration 50μCi/ml ([…]=1.85 ×10^6 Bq); the hydroxyl groups 1 and 2 of glycerol resulted esterified with stearic acid and arachidonic acid in 90% of the product.
1 ml of a chloroform solution containing L-phosphatidylinositol (10 mg/ml sigma cod P 25/7 containing mainly stearic acid and arachidonic acid) was taken. […] Marked phosphatidylinositol was added to 9 ml of said solution in such an amount that in 300μl of the solution (2.0× 10^-4 M) thus obtained, 130,078±1316 Dpm were recorded. […]
In order to determine the inhibitory activity of the compounds of the present invention, said compounds and the enzyme were preincubated for 20 minutes. […] A suitable aliquot of the aqueous phase was utilized for the scintillatot readings.

SMILES | % toxicity (percentage of killed cells), maximum ([1]; concentration 10^-3 -3×10^-3 M) [%] | antitumoral activity on erythroleukaemic cells ([1]; concentration 10^-5 M) | IC50 [2] [µM]
CCCCCCCCCCCCCCCCCCSP(=O)(O)O[C@@H]1[C@H](O)[C@H](O)[C@@H](O)[C@H](O)[C@H]1O (relative stereo) [Example 1.3, 1-O-(OCTADECYLPHOSPHOTHIOLYL)-MYO-INOSITOL] | ~100 | shows antitumoral activity | –
CCCCCCCCCCCCCCSP(=O)(O)O[C@@H]1[C@H](O)[C@H](O)[C@@H](O)[C@H](O)[C@H]1O (relative stereo) [Example 3.3, 1-O-(TETRADECYLPHOSPHOTHIOLYL)-MYO-INOSITOL] | – | – | ~100
CCCCCCCCCCCCSP(=O)(O)O[C@@H]1[C@H](O)[C@H](O)[C@@H](O)[C@H](O)[C@H]1O (relative stereo) [Example 4.3, 1-O-(DODECYLPHOSPHOTHIOLYL)-MYO-INOSITOL] | – | – | > 100
CCCCCCCCSP(=O)(O)O[C@@H]1[C@H](O)[C@H](O)[C@@H](O)[C@H](O)[C@H]1O (relative stereo) [Example 5.3, 1-O-(OCTYLPHOSPHOTHIOLYL)-MYO-INOSITOL] | – | – | > 100
